Each structure is given as a SMILES string. Active and inactive are the calls of the source.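 How the source made its calls: active means maximal inhibition of the USP30 enzyme reaching 30% or more across the dose series; inactive means the rest.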

Chain of Ubiquitin carboxyl-terminal hydrolase 30 (Homo sapiens) (Q70CQ3 whole entry, looked up): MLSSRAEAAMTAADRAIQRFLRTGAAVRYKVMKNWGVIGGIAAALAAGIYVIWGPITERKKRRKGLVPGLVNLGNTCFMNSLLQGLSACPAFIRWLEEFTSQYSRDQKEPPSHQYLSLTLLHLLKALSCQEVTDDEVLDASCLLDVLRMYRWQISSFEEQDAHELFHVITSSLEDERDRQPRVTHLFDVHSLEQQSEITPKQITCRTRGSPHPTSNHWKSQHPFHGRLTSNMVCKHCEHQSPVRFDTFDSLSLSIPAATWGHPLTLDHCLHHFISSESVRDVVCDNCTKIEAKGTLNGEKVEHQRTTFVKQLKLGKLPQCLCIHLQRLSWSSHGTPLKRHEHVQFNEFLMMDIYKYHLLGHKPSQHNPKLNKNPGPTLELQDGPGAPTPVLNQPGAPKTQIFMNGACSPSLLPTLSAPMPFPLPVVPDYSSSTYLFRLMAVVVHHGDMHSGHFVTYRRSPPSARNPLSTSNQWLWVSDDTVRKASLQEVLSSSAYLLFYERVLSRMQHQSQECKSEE

The assay addresses Ubiquitin carboxyl-terminal hydrolase 30 (Homo sapiens) (UniProt Q70CQ3). In words: inhibitors of ubiquitin-specific protease 30 deubiquitylating enzyme, concentration dependence, in vitro biochemical, validation of primary hits (AID 1645865). Conditions: purified USP30, Ub-rhodamine cleavage, fluorescence, 2 h.
Turning to `CCOC(=O)c1cc2c(ccn2C)n1CC(=O)N1CCc2ccccc2C1`, the IC50 was > 50 µM (inactive).

As for `O=C(COc1nsnc1N1CCOCC1)Nc1ccc(F)c(F)c1`, the IC50 is > 50 µM (inactive). With `COc1ccc(CCn2cnc3c4ccccc4n(C)c3c2=O)cc1OC` the figure was > 50 µM (inactive); with `Cc1cccc(N2C(=O)/C(=C\c3ccc4c(c3)OCCO4)c3ccccc3C2=O)c1`, > 50 µM (inactive). In the case of `CN(C)C1CCN(C(=O)c2cc(-c3ccn(-c4ccccc4)n3)n3ccccc23)CC1`, the IC50 is > 50 µM (inactive). With `CC1CCc2c(sc3ncnc(NC4CCN(CC(N)=O)CC4)c23)C1` (stereo unspecified) the figure was > 50 µM (inactive). As for `CC(C)N1CC2CN(Cc3ccc(Cl)cc3)CCN2Cc2ccccc21` (stereo unspecified), the IC50 is > 50 µM (inactive).

Turning to `COc1ccc(CNC(=O)CSc2nc3nc(C)ccc3o2)cc1`, the IC50 is 19.7 µM. The result for `CCCc1nc2sc3c(N(CC)CC)ncnc3c2c2c1CCC2` reads > 50 µM (inactive).

As for `COc1ccc(-c2nc3n(n2)C(CC(=O)Nc2cccc4ccccc24)C(=O)N3)cc1` (stereo unspecified), the IC50 is 2.87 µM.

Take `COC(=O)COc1ccc(/C=N/NC(=O)c2ccc(CN3CCc4ccccc4C3)cc2)cc1`: the 50% inhibitory concentration (IC50) is 26.7 µM. `Nc1c(-c2ccc(Cl)cc2)cnc2cc(-c3ccc(Cl)c(Cl)c3)nn12`: the IC50 was 1.49 µM.

Regarding `CCOc1ccc(N2C(=O)c3ccccc3C2C(=O)NCc2ccccc2OC)cc1` (stereo unspecified), the IC50 is 41.5 µM. On to `O=C(CSc1nc2cc(S(=O)(=O)Nc3ccccc3Cl)ccc2o1)Nc1ccc(N2CCOCC2)cc1`, for which the IC50 was 49.6 µM. As for `O=C(CSc1nnc(CNC(=O)c2ccccc2F)o1)Nc1ccc(OC(F)(F)F)cc1`, the IC50 is 26.5 µM. On to `CCOC(=O)c1sc2c(c1C)c(=O)n(Cc1ccccc1)c(=O)n2CC(N)=O`, for which the IC50 was 45.5 µM.

For the molecule `Cc1cc(C(=O)Nc2ccc3c(c2)OCCO3)no1`, the IC50 was > 50 µM (inactive). On to `CC1Oc2ccccc2C(=O)N(Cc2ccc([N+](=O)[O-])cc2)C1=O` (stereo unspecified), for which the IC50 is > 50 µM (inactive). As for `COc1ccc2nc(-c3ccc(NC(=O)c4cccc(OC)c4OC)cc3)cn2n1`, the IC50 is 1.89 µM.

In the case of `CC(=O)c1ccc(NC(=O)c2nc3ccccc3nc2N2CCOCC2)cc1`, the IC50 is > 50 µM (inactive). For the molecule `CC1=C(c2ccc(F)cc2)S(=O)(=O)N=C1Nc1ccc(Cl)cc1`, the IC50 is 32.3 µM. As to `CCOc1ccccc1C(=O)Oc1ccc2c(C)cc(=O)oc2c1`, the IC50 is 23.1 µM. Take `Cc1ccc(NC(=O)c2cnc(N3CCOCC3)nc2)cc1F`: the IC50 is 27.6 µM. Consider `Cc1ccc(C(=O)Nc2ccc3nccnc3c2)cc1`, for which the IC50 is 34.3 µM. In the case of `COc1ccc(-c2ocnc2C(=O)Nc2cccc(Cl)c2C)cc1OC`, the IC50 is 45.8 µM.

In the case of `CN(C)S(=O)(=O)c1ccc(N2CCCC2)c(C(=O)Nc2ccc(-c3cn4ccsc4n3)cc2)c1`, the IC50 is > 50 µM (inactive). With `CC(=O)N1CCCC(c2nc(C)cc(-c3cc(F)ccc3C(=O)O)n2)C1` (stereo unspecified), the IC50 was > 50 µM (inactive).

Regarding `Oc1cc(OCc2cccc(C(F)(F)F)c2)ccc1-c1ccn[nH]1`, the IC50 is 37.3 µM. In the case of `CC(C)(C)C(=O)Nc1ccc(SCc2nnc(-c3ccccc3)o2)cc1`, the IC50 is > 50 µM (inactive).

`CCOc1ccc2c(c1)c(=O)c(C(=O)c1ccccc1)cn2CC(=O)Nc1ccccc1`: the IC50 is 4.27 µM. Consider `COc1cc2c(cc1NC(=O)c1ccc(-n3cnnn3)cc1)oc1ccccc12`, for which the IC50 is 0.221 µM.

In the case of `COc1ccc(-c2cc(C(=O)N3CCN(c4ccc([N+](=O)[O-])cc4)CC3)[nH]n2)cc1`, the IC50 was > 50 µM (inactive). For the molecule `COc1cccc(-n2c(CNCc3cccnc3)nc3ccc([N+](=O)[O-])cc3c2=O)c1`, the IC50 was 25.2 µM. Regarding `CCn1cc(-c2nc(-c3ccccc3)no2)c(=O)c2cc(F)ccc21`, the IC50 is 2.18 µM. For `Cc1cn[nH]c1C1COCCN1C(=O)c1ccc2ncccc2c1` (stereo unspecified), the IC50 was > 50 µM (inactive). For `Cc1ccc(-n2c(-c3ccccc3)cn3c4c(=O)[nH]c(=O)n(C)c4nc23)cc1C`, the IC50 is 0.286 µM. In the case of `Cc1ccc2[nH]c(=O)c(-c3nc4ccc(C)cn4c3NCc3ccc(F)cc3)cc2c1`, the IC50 is 2.1 µM. Regarding `CC(C)(C)C(=O)[C@@H]1[C@@H](C(=O)c2ccc3c(c2)OCO3)[C@@]2(C(=O)Nc3ccccc32)[C@H]2c3ccccc3C=CN12`, the IC50 was > 50 µM (inactive). `O=S(=O)(Nc1ccc(O)cc1)c1ccc2oc3ccc(S(=O)(=O)Nc4ccc(O)cc4)cc3c2c1`: the IC50 is 26.5 µM.

Take `CSc1cccc(C(=O)Nc2ccc(-c3nc4ccccc4[nH]3)cc2)c1`: the IC50 is 2.89 µM. Turning to `O=C(COc1ccc(Cl)cc1)Nc1noc(-c2ccccc2)n1`, the IC50 is 25.8 µM. As for `COc1ccccc1OCCNC(=O)c1cc(C2CC2)nc2c1cnn2C(C)C`, the IC50 is > 50 µM (inactive). `Cc1cc(C)c2cc(CN(CCc3ccccc3)C(=O)Nc3ccccc3)c(=O)[nH]c2c1`: the IC50 is > 50 µM (inactive). Consider `COc1cc(COc2ccc3c(C)c(CC(=O)N4CC[C@@]5(O)CCCC[C@H]5C4)c(=O)oc3c2C)cc(OC)c1OC`, for which the IC50 was 34.8 µM. Regarding `CC(C)OC(=O)c1cc2c(ccn2-c2ccc(F)cc2)n1CC(=O)NC1CCCCC1`, the IC50 is > 50 µM (inactive). Take `Cc1ccc(CNC(=O)CCCn2c(=O)c3sccc3n(CC(=O)OCc3ccccc3)c2=O)cc1`: the concentration for half-maximal inhibition (IC50) is 2 µM. The result for `Cc1ccc(-c2c(C(=O)Nc3ccc(S(N)(=O)=O)cc3)oc(=O)c3ccccc23)cc1` reads 29.2 µM; that for `Cc1nc(-c2cccc(NC(=O)C3CCN(c4ccccc4)C3=O)c2)no1` (stereo unspecified), 45.3 µM; that for `O=C(Cn1cnc2ccccc21)Nc1ccc2c(c1)CCC2`, 42.6 µM. Consider `Cc1ccc(-c2nc(Cn3cnc4ccccc4c3=O)cs2)cc1`, for which the IC50 was 4.83 µM. As to `NS(=O)(=O)c1cccc(NC(=O)CN2CCCc3ccccc32)c1`, the IC50 was > 50 µM (inactive).

For the molecule `CCOc1ccc(NC(=O)Cn2cnc(S(=O)(=O)N3CCc4ccccc43)c2)cc1`, the IC50 was 27.4 µM. Consider `COc1cccc(CNC(=O)c2ccc3c(c2)NC(=O)C2CCCN32)c1OC` (stereo unspecified), for which the IC50 is > 50 µM (inactive). With `Cc1cc(C)c2cc3c(nc2c1)OC(=O)N(Cc1ccco1)C3` the figure was 23.2 µM; with `O=C(C1CCCN(S(=O)(=O)N2CCCCCC2)C1)N1CCN(c2ccccc2)CC1` (stereo unspecified), > 50 µM (inactive); with `c1ccc2c(c1)CCc1c-2nc2ccccc2c1N1CCOCC1`, > 50 µM (inactive). The result for `c1ccc(CN2CCN(c3nc4ccccc4n4nnnc34)CC2)cc1` reads > 50 µM (inactive). Take `Fc1ccc(Cn2ccc(-c3cnc(-c4ccccc4)s3)n2)cc1`: the IC50 is > 50 µM (inactive).

Consider `COc1ccc(/C=C\c2nccc3c2[nH]c2ccccc23)cc1`, for which the IC50 was > 50 µM (inactive). With `Cc1cc(C)c(NC(=O)CSc2nc3nccnc3c(=O)n2Cc2ccccc2Cl)c(C)c1`, the IC50 was 3.88 µM. The result for `Cc1ccc(-c2nc(-c3cccs3)cc(C(F)(F)F)c2C#N)cc1` reads > 50 µM (inactive); that for `COc1cc(O)c2c(c1)C1=CC(=O)C(O)=C[C@]1(C)OC2=O`, 34.6 µM. With `Cc1cnnn1-c1ccc(C(=O)Nc2cc(Cl)ccc2Cl)cc1`, the IC50 was 20.7 µM. For `Cc1ccc(-n2c(=O)c3ccccc3n(Cc3c(F)cccc3Cl)c2=O)cc1`, the IC50 is 2.25 µM.

As for `CCc1nc2cc(NC(=O)c3cccc(N4CCCC4=O)c3)ccc2n1C`, the IC50 was > 50 µM (inactive).

Consider `O=C(CN1C(=O)c2ccccc2Sc2ccc(C(=O)N3CCCC3)cc21)Nc1ccccc1Cl`, for which the IC50 was > 50 µM (inactive).

Take `Cc1ccc(CNC(=O)c2cccc(N3C(=O)N4CCc5c([nH]c6ccccc56)[C@@]4(C)C3=O)c2)cc1`: the IC50 was 15.3 µM. With `CCC(CC)n1[nH]c(=O)c2c1NC(=O)CSC2c1ccc2c(c1)OCO2` (stereo unspecified) the figure was 16.7 µM. The result for `COC(=O)c1c(C)[nH]c(C(=O)C(C)OC(=O)CCC2CCCC2)c1C` (stereo unspecified) reads > 50 µM (inactive); that for `O=C(Cn1cnc2c(oc3ccccc32)c1=O)NCc1ccccc1Cl`, 35.9 µM. For `COc1cc(O)c2c(O)c3c(cc2c1)CC(C)OC3=O` (stereo unspecified), the IC50 was > 50 µM (inactive). Consider `CC1CCN(c2cc(-n3cnc(C(=O)N4CCCC(C)C4)c3)ncn2)CC1` (stereo unspecified), for which the IC50 was > 50 µM (inactive). For `COc1ccc(-c2cc3nc([C@@H](C)NC(=O)c4ccc5c(c4)OCO5)nn3cn2)cc1`, the IC50 is > 50 µM (inactive).

In the case of `CC(=O)N1CCc2cc(S(=O)(=O)NCCC(=O)Nc3cccc(C)c3C)ccc21`, the IC50 is 39 µM.

On to `O=C(COC(=O)CCc1ccc(S(=O)(=O)N2CCOCC2)cc1)Nc1ccc2c(c1)OCCO2`, for which the IC50 is > 50 µM (inactive). For `O=C(Nc1nc2c(s1)COCC2)c1cc(-c2ccco2)[nH]n1`, the IC50 was > 50 µM (inactive).

Regarding `CCOc1ccc(-c2nc(C#N)c(N3CCN(C(=O)c4ccccc4C)CC3)o2)cc1`, the IC50 was 2.62 µM. With `Cc1ccc(CNC(=O)Cn2cnc3c(cnn3-c3cccc(Cl)c3)c2=O)cc1` the figure was 1.15 µM; with `COc1ccc(-n2ccc(=O)c(-c3nc(-c4ccccc4F)no3)n2)cc1OC`, > 50 µM (inactive); with `O=C(NCCN1CCCC1)C1CCN(c2cnc(N3CCCCC3)nc2)CC1`, > 50 µM (inactive). With `CC(=O)[C@H]1c2c(c(O)c3c(O)cccc3c2-c2c3c(c(O)c4c(O)cccc24)C(=O)C[C@](C)(O)[C@H]3C(C)=O)C(=O)C[C@]1(C)O` the figure was > 50 µM (inactive); with `CCC(C)c1ccc(O[C@@H]2O[C@@H]3COC(c4ccccc4)O[C@H]3[C@H](O)[C@H]2NC(C)=O)cc1` (stereo partly specified), 18.5 µM. Regarding `O=C(NCc1ccc2c(c1)OCO2)c1ccc(C2SCC(=O)N2Cc2ccco2)cc1` (stereo unspecified), the IC50 is > 50 µM (inactive). As for `COc1cccc(NC(=O)C2CCN(C(=O)c3cc(-c4cccnc4)n[nH]3)CC2)c1`, the IC50 is > 50 µM (inactive). For `O=C(NCc1ccc(-c2nc3cnccc3o2)cc1)c1cc2ccccc2o1`, the IC50 was 2.99 µM. On to `COc1ccccc1-c1ccc(SCC(=O)Nc2ccc3c(c2)OCCO3)nn1`, for which the IC50 is > 50 µM (inactive).

As a reminder, the IC50 is the point on the concentration scale where inhibition reaches its midpoint.

These data come from PubChem BioAssay AID1645865 (Buhrlage Lab, Dana-Farber Cancer Institute and Novartis …, 2021).
